Measured values as given in PubChem BioAssay (NCI).
Values joined by “and” are separate entries in the source; they are usually repeats but may differ in a detail not shown here. Equal entries are not always repeated.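 Dose response: 5 concentrations. Exposure: 48 h. Format: 96-well plates. Endpoint: linear interpolation; highest concentration if not reached. GI50 = concentration required for 50% inhibition of growth. The concentration for full growth arrest is given as TGI.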

How the values were obtained:
Test in all cases: growth of human tumour cells (NCI), 48 h
786-0 renal = tested on: 786-0 renal
CAKI-1 renal = tested on: CAKI-1 renal
CCRF-CEM leukemia = tested on: CCRF-CEM leukemia
HCT-116 colon = tested on: HCT-116 colon
HL-60(TB) leukemia = tested on: HL-60(TB) leukemia
HOP-62 NSCLC = tested on: HOP-62 NSCLC
HT29 colon = tested on: HT29 colon
MOLT-4 leukemia = tested on: MOLT-4 leukemia
SK-MEL-2 melanoma = tested on: SK-MEL-2 melanoma
SW-620 colon = tested on: SW-620 colon

Row | SMILES | TGI (786-0 renal) | TGI (CAKI-1 renal) | TGI (CCRF-CEM leukemia) [µM] | TGI (HCT-116 colon) | TGI (HL-60(TB) leukemia) [µM] | TGI (HOP-62 NSCLC) | TGI (HT29 colon) | TGI (MOLT-4 leukemia) | TGI (SK-MEL-2 melanoma) [µM] | TGI (SW-620 colon) | GI50 (786-0 renal) [µM] | GI50 (CCRF-CEM leukemia) [µM] | GI50 (HCT-116 colon) [µM] | GI50 (HL-60(TB) leukemia) | GI50 (HOP-62 NSCLC) [µM] | GI50 (HT29 colon) [µM] | GI50 (MOLT-4 leukemia) [µM] | GI50 (SK-MEL-2 melanoma) [µM] | GI50 (SW-620 colon) [µM] | GI50 (CAKI-1 renal) [µM]
1 | OCC1CC2CC1C1(C2)OCCO1 (stereo not drawn) | > 100 µM | > 100 µM | > 100 | > 100 µM | > 100 | > 100 µM | > 100 µM | > 100 µM | > 100 | > 100 µM |  |  |  |  |  |  |  |  |  | 
2 | CC(=O)OCC1OC(O[C@@H]2C[C@H]3C(C)(C)[C@H](OC(C)=O)CC[C@]3(C)[C@H]3CC[C@@H]4[C@]5(CC[C@@]4(C)[C@@]32C)O[C@@H]([C@H](O)C(C)(C)O)C[C@@H]5C)C(O)C(O)C1O (stereo partly drawn) | 21.9 µM | 13.5 µM | 20 | 15.1 µM | 10.2 | 27.3 µM | 4.28 µM | 12.2 µM | 19.7 | 22.9 µM | 8.79 | 3.16 | 3.81 | 2.93 µM | 14.2 | 1.83 | 3.13 | 6.04 | 10.4 | 
3 | NC(=NC1C2CC3CC(C2)CC1C3)Nc1ccc(I)cc1 (stereo not drawn) | 15.5 µM | 13.1 µM | > 100 | 10.4 µM | 27.2 | 8.38 µM | 10.8 µM | 8.79 µM | 7.62 | 11.6 µM | 4.03 | 3.43 | 3.11 | 6.43 µM | 2.46 | 3.1 | 2.22 | 2.63 | 2.64 | 3.29
4 | COc1cc(SC)ccc1C(=O)N1CCCC(C)C1 (stereo not drawn) | > 100 µM | > 100 µM | > 100 | > 100 µM | > 100 | > 100 µM | > 100 µM | > 100 µM | > 100 | > 100 µM | > 100 | > 100 | > 100 | 75.2 µM | > 100 | > 100 | 77.7 | > 100 | > 100 | > 100
5 | Cc1cc(I)cc(CN(C)CCCCN2CCCC2)c1O | 31.4 µM | 38.9 µM | > 100 | 40 µM | 35.2 | 33.9 µM | 22 µM | 33.4 µM | 34.8 | 39.6 µM | 15.3 | 31.3 | 13.1 | 16 µM | 16.4 | 5.7 | 15.5 | 18.2 | 17.2 | 17.5
6 | C[C@@H]1CC[C@H]2C(CN3CCN(CC4=C(C(F)(F)F)O[C@@H]5O[C@@]6(C)CC[C@H]7[C@H](C)CC[C@@H]4[C@@]57OO6)CC3)=C(C(F)(F)F)O[C@@H]3O[C@@]4(C)CC[C@@H]1[C@]32OO4 | > 37.3 µM | > 33.5 µM | > 100 | > 35.9 µM |  | > 46.9 µM | > 100 µM | > 100 µM | > 100 | > 100 µM | 1.8 | 0.605 | 0.262 | 0.382 µM |  | 1.42 | 5.35 | 10.6 | 1.12 | 3.16
7 | O=c1c2c(=NCCCN3CCCC3)cc3c(=O)n(CCCN4CCCC4)c(=O)c4c(NCCCN5CCCC5)cc(c(O)n1CCCN1CCCC1)c2c4-3 | > 100 µM | 42 µM | 71 | 6.43 µM | 73.5 | 4.54 µM | 6.49 µM | > 100 µM | 6.57 | 14.5 µM | 12.9 | 5.22 | 2.01 | 11.2 µM | 1.42 | 1.51 | 6.63 | 2.22 | 1.72 | 10.6
8 | CC(C)(C)c1ccc(C(O)(c2ccc(C(C)(C)C)cc2)c2ccc(C(C)(C)C)cc2)cc1 | > 100 µM | > 100 µM | > 100 | > 100 µM | > 100 | > 100 µM | > 100 µM | > 100 µM | > 100 | > 100 µM |  |  |  |  |  |  |  |  |  | 
9 | Cc1ccc(S(=O)(=O)ON=C2CC(c3ccccc3)N(C)C(c3ccccc3)C2)cc1 (stereo not drawn) | 44.9 µM and 58.5 µM | 71.5 µM and 44.9 µM | > 100 | 29.6 µM and 27.5 µM | > 100 | 68.4 µM and 98.2 µM | 54.7 µM and 57.3 µM | 53.2 µM and > 100 µM | 30 | 38.8 µM and 31.2 µM |  |  |  | 7.25 µM and 19.9 µM |  |  |  |  |  | 
10 | C/C(=N\NC(=S)Nc1ccc([N+](=O)[O-])cc1S(=O)(=O)O)c1ccccn1 | > 100 µM | > 100 µM | > 100 | > 100 µM | 84.8 | > 100 µM | > 100 µM | > 100 µM | 91.3 | 56.5 µM |  |  |  |  |  |  |  |  |  | 
11 | CCOc1ccc(N2C(N)=NC(N)=NC2(C)C)cc1 | > 100 µM | > 100 µM | > 100 | > 100 µM | > 100 | > 100 µM | > 100 µM | > 100 µM | > 100 | > 100 µM | 44.9 | > 100 | 34.6 | 72 µM | 95 | 58.1 | 65.6 | > 100 | 37.6 | > 100
